# Test results from US7799809B2, “Carboxamide compounds and their use as calpain inhibitors” (Abbott GmbH & Co. KG, priority 2006, dated 2010).
# How the values were obtained:
# Assay type in all cases: biochemical
# cathepsin B = biological target: T1, cathepsin B (Homo sapiens, UniProt P07858); test: Cathepsin B enzyme inhibition in vitro (kinetic fluorescence assay); conditions: cathepsin B isolated from human liver vs calpain I
# T1 construct: cathepsin B—isolated from human liver (Calbiochem #219362); purchased Calbiochem 219362; host or cells: human liver (tissue-derived)
# Summary of the method: (§1)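 Inhibition is measured at room temperature in cysteine-containing MES buffer, pH 6.0, by continuous fluorescence at 460 nm. Cathepsin S (0.5 nM) uses 20 μM Z-Val-Val-Arg-AMC; L (1 nM) and B (0.25 nM) use Z-Phe-Arg-AMC at 2 and 100 μM respectively.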
# cathepsin K = biological target: T2, cathepsin K (Homo sapiens, UniProt P43235); test: Cathepsin K enzyme inhibition in vitro (kinetic fluorescence assay); conditions: cathepsin K activated from recombinant human procathepsin K vs calpain I
# T2 construct: purchased Calbiochem 342001; host or cells: E. coli
# T2 sequence (P43235 115-329): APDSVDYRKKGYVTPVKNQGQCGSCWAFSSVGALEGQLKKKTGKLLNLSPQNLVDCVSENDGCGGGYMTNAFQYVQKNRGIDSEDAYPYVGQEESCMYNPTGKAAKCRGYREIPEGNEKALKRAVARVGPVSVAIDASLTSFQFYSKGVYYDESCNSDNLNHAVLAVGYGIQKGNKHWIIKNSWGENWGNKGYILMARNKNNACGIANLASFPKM
# cathepsin L = biological target: T3, cathepsin L (Homo sapiens, UniProt P07711); test: Cathepsin L enzyme inhibition in vitro (kinetic fluorescence assay); conditions: cathepsin L isolated from human liver vs calpain I
# T3 construct: cathepsin L—isolated from human liver (Calbiochem #219402); purchased Calbiochem 219402; host or cells: human liver (tissue-derived)
# Summary of the method: as §1
# cathepsin S = biological target: T4, cathepsin S (Homo sapiens, UniProt P25774); test: Cathepsin S enzyme inhibition in vitro (kinetic fluorescence assay); conditions: recombinant human cathepsin S vs calpain I
# T4 construct: purchased Calbiochem 219343; host or cells: E. coli
# Summary of the method: as §1
# T3 sequence (P07711 114-333): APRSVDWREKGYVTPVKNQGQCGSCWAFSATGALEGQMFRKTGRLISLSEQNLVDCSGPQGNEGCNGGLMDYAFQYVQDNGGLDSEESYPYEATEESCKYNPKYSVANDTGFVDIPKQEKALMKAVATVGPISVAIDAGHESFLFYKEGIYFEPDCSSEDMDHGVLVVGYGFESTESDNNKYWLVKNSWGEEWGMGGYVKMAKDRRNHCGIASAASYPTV
# T4 sequence (P25774 115-331): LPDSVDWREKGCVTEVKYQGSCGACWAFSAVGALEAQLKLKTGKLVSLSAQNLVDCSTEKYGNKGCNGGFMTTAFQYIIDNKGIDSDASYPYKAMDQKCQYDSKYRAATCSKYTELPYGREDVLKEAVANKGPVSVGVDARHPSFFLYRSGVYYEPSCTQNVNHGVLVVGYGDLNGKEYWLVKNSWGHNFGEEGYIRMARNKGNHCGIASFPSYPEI
Compound,Sel cat. B: Ki(cathepsin B)/Ki(calpain) ratio (cathepsin B),Sel cat. K: Ki(cathepsin K)/Ki(calpain) ratio (cathepsin K),Sel cat. L: Ki(cathepsin L)/Ki(calpain) ratio (cathepsin L),Sel cat. S: Ki(cathepsin S)/Ki(calpain) ratio (cathepsin S)
"COc1ccc2c(c1)OCc1cn(-c3ncccc3C(=O)NC(Cc3ccccc3)C(=O)C(N)=O)nc1-2 (centres unmarked) [Example 142, N-[3-Amino-2,3-dioxo-1-(phenylmethyl)propyl]-2-[7-(methyloxy)chromeno[4,3-c]pyrazol-2(4H)-yl]pyridine-3-carboxamide]",+ (+ means 10≦Ki(cathepsin B)/Ki(calpain)<30),+ (+ means 10≦Ki(cathepsin K)/Ki(calpain)<30),++ (++ means a Ki(cathepsin L)/Ki(calpain) ratio of ≧50),++ (++ means a Ki(cathepsin S)/Ki(calpain) ratio of ≧100)
"Cl.NC(=O)C(=O)C(Cc1cccnc1)NC(=O)c1cccnc1-n1ccc(-c2ccccc2)n1 (centres unmarked) [Example 88, N-[3-Amino-2,3-dioxo-1-(pyridin-3-ylmethyl)propyl]-2-(3-phenyl-1H-pyrazol-1-yl)pyridine-3-carboxamide hydrochloride]",+ (+ means 10≦Ki(cathepsin B)/Ki(calpain)<30),++ (++ means a Ki(cathepsin K)/Ki(calpain) ratio of ≧30),++ (++ means a Ki(cathepsin L)/Ki(calpain) ratio of ≧50),++ (++ means a Ki(cathepsin S)/Ki(calpain) ratio of ≧100)
"NC(=O)C(=O)C(Cc1ccc(OC(F)(F)F)cc1)NC(=O)c1cccnc1-n1ccc(-c2cccc(C(F)(F)F)c2)n1 (centres unmarked) [Example 134, N-[3-Amino-2,3-dioxo-1-({4-[(trifluoromethyl)oxy]phenyl}methyl)propyl]-2-{3-[3-(trifluoromethyl)phenyl]-1H-pyrazol-1-yl}pyridine-3-carboxamide]",++ (++ means a Ki(cathepsin B)/Ki(calpain) ratio of ≧30),++ (++ means a Ki(cathepsin K)/Ki(calpain) ratio of ≧30),+ (+ means 30≦Ki(cathepsin L)/Ki(calpain)<50),+ (+ means 50≦Ki(cathepsin S)/Ki(calpain)<100)
"NC(=O)C(=O)C(Cc1ccccc1)NC(=O)c1cccnc1-n1ccc(-c2cccc(C(F)(F)F)c2Cl)n1 (centres unmarked) [Example 155, N-[3-Amino-2,3-dioxo-1-(phenylmethyl)propyl]-2-{3-[2-chloro-3-(trifluoromethyl)phenyl]-1H-pyrazol-1-yl}pyridine-3-carboxamide]",++ (++ means a Ki(cathepsin B)/Ki(calpain) ratio of ≧30),++ (++ means a Ki(cathepsin K)/Ki(calpain) ratio of ≧30),++ (++ means a Ki(cathepsin L)/Ki(calpain) ratio of ≧50),++ (++ means a Ki(cathepsin S)/Ki(calpain) ratio of ≧100)
"NC(=O)C(=O)C(Cc1ccccc1)NC(=O)c1cccnc1-n1ccc(-c2cccc(Cl)c2)n1 (centres unmarked) [Example 70, N-(3-Amino-1-benzyl-2,3-dioxopropyl)-2-[3-(3-chlorophenyl)-1H-pyrazol-1-yl]nicotinamide]",+ (+ means 10≦Ki(cathepsin B)/Ki(calpain)<30),+ (+ means 10≦Ki(cathepsin K)/Ki(calpain)<30),++ (++ means a Ki(cathepsin L)/Ki(calpain) ratio of ≧50),++ (++ means a Ki(cathepsin S)/Ki(calpain) ratio of ≧100)
"N-{3-Amino-1-[(4-fluorophenyl)methyl]-2,3-dioxopropyl}-2-[3-(2-chloro-3-fluorophenyl)-1H-pyrazol-1-yl]pyridine-3-carboxamide [Example 154]",++ (++ means a Ki(cathepsin B)/Ki(calpain) ratio of ≧30),++ (++ means a Ki(cathepsin K)/Ki(calpain) ratio of ≧30),++ (++ means a Ki(cathepsin L)/Ki(calpain) ratio of ≧50),++ (++ means a Ki(cathepsin S)/Ki(calpain) ratio of ≧100)
"COc1ccc(CC(NC(=O)c2cccnc2-n2ccc(-c3cccc(F)c3Cl)n2)C(=O)C(N)=O)cc1 (centres unmarked) [Example 157, N-(3-Amino-1-{[4-(methyloxy)phenyl]methyl}-2,3-dioxopropyl)-2-[3-(2-chloro-3-fluorophenyl)-1H-pyrazol-1-yl]pyridine-3-carboxamide]",++ (++ means a Ki(cathepsin B)/Ki(calpain) ratio of ≧30),++ (++ means a Ki(cathepsin K)/Ki(calpain) ratio of ≧30),++ (++ means a Ki(cathepsin L)/Ki(calpain) ratio of ≧50),++ (++ means a Ki(cathepsin S)/Ki(calpain) ratio of ≧100)
"NC(=O)C(=O)C(Cc1ccccc1)NC(=O)c1cccnc1-n1ccc(-c2cccc(OCc3ccccc3)c2)n1 (centres unmarked) [Example 96, N-[3-Amino-2,3-dioxo-1-(phenylmethyl)propyl]-2-(3-{3-[(phenylmethyl)oxy]phenyl}-1H-pyrazol-1-yl)pyridine-3-carboxamide]",++ (++ means a Ki(cathepsin B)/Ki(calpain) ratio of ≧30),++ (++ means a Ki(cathepsin K)/Ki(calpain) ratio of ≧30),++ (++ means a Ki(cathepsin L)/Ki(calpain) ratio of ≧50),++ (++ means a Ki(cathepsin S)/Ki(calpain) ratio of ≧100)
"COc1ccc(CC(NC(=O)c2cccnc2-n2ccc(-c3cccc(Cl)c3Cl)n2)C(=O)C(N)=O)cc1 (centres unmarked) [Example 153, N-(3-Aamino-1-{[4-(methyloxy)phenyl]methyl}-2,3-dioxopropyl)-2-[3-(2,3-dichlorophenyl)-1H-pyrazol-1-yl]pyridine-3-carboxamide]",++ (++ means a Ki(cathepsin B)/Ki(calpain) ratio of ≧30),++ (++ means a Ki(cathepsin K)/Ki(calpain) ratio of ≧30),++ (++ means a Ki(cathepsin L)/Ki(calpain) ratio of ≧50),++ (++ means a Ki(cathepsin S)/Ki(calpain) ratio of ≧100)
"NC(=O)C(=O)C(Cc1ccccc1)NC(=O)c1cccnc1-n1ccc(-c2ccccc2OC(F)(F)F)n1 (centres unmarked) [Example 124, N-[3-Amino-2,3-dioxo-1-(phenylmethyl)propyl]-2-(3-{2-[(trifluoromethyl)oxy]phenyl}-1H-pyrazol-1-yl)pyridine-3-carboxamide]",++ (++ means a Ki(cathepsin B)/Ki(calpain) ratio of ≧30),++ (++ means a Ki(cathepsin K)/Ki(calpain) ratio of ≧30),++ (++ means a Ki(cathepsin L)/Ki(calpain) ratio of ≧50),++ (++ means a Ki(cathepsin S)/Ki(calpain) ratio of ≧100)
"Cc1c(Cl)ccc2c1-c1nn(-c3ncccc3C(=O)NC(Cc3ccccc3)C(=O)C(N)=O)cc1CO2 (centres unmarked) [Example 143, N-[3-Amino-2,3-dioxo-1-(phenylmethyl)propyl]-2-(8-chloro-9-methylchromeno[4,3-c]pyrazol-2(4H)-yl)pyridine-3-carboxamide]",++ (++ means a Ki(cathepsin B)/Ki(calpain) ratio of ≧30),++ (++ means a Ki(cathepsin K)/Ki(calpain) ratio of ≧30),++ (++ means a Ki(cathepsin L)/Ki(calpain) ratio of ≧50),++ (++ means a Ki(cathepsin S)/Ki(calpain) ratio of ≧100)
"COc1c(C)cc(C)cc1-c1ccn(-c2ncccc2C(=O)NC(Cc2ccccc2)C(=O)C(N)=O)n1 (centres unmarked) [Example 121, N-[3-Amino-2,3-dioxo-1-(phenylmethyl)propyl]-2-{3-[3,5-dimethyl-2-(methyloxy)phenyl]-1H-pyrazol-1-yl}pyridine-3-carboxamide]",++ (++ means a Ki(cathepsin B)/Ki(calpain) ratio of ≧30),++ (++ means a Ki(cathepsin K)/Ki(calpain) ratio of ≧30),++ (++ means a Ki(cathepsin L)/Ki(calpain) ratio of ≧50),++ (++ means a Ki(cathepsin S)/Ki(calpain) ratio of ≧100)
"NC(=O)C(=O)C(Cc1ccc(OC(F)(F)F)cc1)NC(=O)c1cccnc1-n1ccc(-c2ccccc2)n1 (centres unmarked) [Example 133, N-[3-Amino-2,3-dioxo-1-({4-[(trifluoromethyl)oxy]phenyl}methyl)propyl]-2-(3-phenyl-1H-pyrazol-1-yl)pyridine-3-carboxamide]",++ (++ means a Ki(cathepsin B)/Ki(calpain) ratio of ≧30),++ (++ means a Ki(cathepsin K)/Ki(calpain) ratio of ≧30),++ (++ means a Ki(cathepsin L)/Ki(calpain) ratio of ≧50),++ (++ means a Ki(cathepsin S)/Ki(calpain) ratio of ≧100)
"NC(=O)C(=O)C(Cc1ccccc1)NC(=O)c1cccnc1-n1ccc(-c2ccc(F)cc2F)n1 (centres unmarked) [Example 94, N-[3-Amino-2,3-dioxo-1-(phenylmethyl)propyl]-2-[3-(2,4-difluorophenyl)-1H-pyrazol-1-yl]pyridine-3-carboxamide]",++ (++ means a Ki(cathepsin B)/Ki(calpain) ratio of ≧30),+ (+ means 10≦Ki(cathepsin K)/Ki(calpain)<30),++ (++ means a Ki(cathepsin L)/Ki(calpain) ratio of ≧50),++ (++ means a Ki(cathepsin S)/Ki(calpain) ratio of ≧100)
